# Experiments:
# TRKA-wt = molecular target: T1, TRKA-wt (Homo sapiens, UniProt P04629); assay: Biochemical kinase assay, TRKA-wt kinase domain; conditions: apparent inhibitory constant, Morrison equation; ATP 2 mM in substrate solution; read-out: TRKA-wt Ki^app
# T1 construct: or TRKA-wt (1 nM, BPS Bio, 40280) kinase domains in buffer; purchased BPS Bio 40280
# Protocol: (§1) First, 250 nL of compound dissolved in DMSO (100-fold of the desired concentration) was dispensed into a 384-well plate. A 12.5 μL substrate solution containing ATP (2 mM) and fluorogenic phosphorylation substrate AQT0101 (26 μM for ALK and ROS1, AssayQuant) or AQT0104 (26 μM for TRKA, AssayQuant) in buffer (50 mM HEPES pH 7.5, 0.01% Brij-35, 0.5 mM EGTA, 10 mM MgCl2) was added and mixed thoroughly. Then, a 12.5 μL kinase solution containing ALK-wt (1.5 nM, Carna, 08-518), ALK ALK L1196M/G1202R (3 nM, SignalChem, A19-12NG), ROS1-wt (0.6 nM, Carna, 08-163), ROS1-G2032R (0.5 nM, SignalChem, R14-12BG), or TRKA-wt (1 nM, BPS Bio, 40280) kinase domains in buffer (50 nM HEPES pH 7.5, 0.01% Brij-35, 2% glycerol, 0.4 mg/mL BSA, 0.5 mM EGTA, and 10 mM MgCl2) was added and mixed thoroughly. The plate was sealed and read by SpectraMax Paradigm at λ=485 nm every 2 minutes for 120 minutes at 30° C. Initial rates of reaction (v) were calculated from the change in fluorescence intensity over time during the initial, linear portion of the reaction. Finally, apparent inhibitory constants (Ki^app) were determined from regression of v and I (inhibitor concentration) to Morrison Equation (E=enzyme concentration): […]
# ROS1-G2032R = molecular target: T2, ROS1-G2032R (Homo sapiens, UniProt P08922, G2032R); assay: Biochemical kinase assay, ROS1-G2032R kinase domain; conditions: apparent inhibitory constant, Morrison equation; ATP 2 mM in substrate solution; read-out: ROS1-G2032R Ki^app
# T2 construct: purchased SignalChem R14-12BG
# T2 sequence (P08922 1945-2222 G2032R limits assumed): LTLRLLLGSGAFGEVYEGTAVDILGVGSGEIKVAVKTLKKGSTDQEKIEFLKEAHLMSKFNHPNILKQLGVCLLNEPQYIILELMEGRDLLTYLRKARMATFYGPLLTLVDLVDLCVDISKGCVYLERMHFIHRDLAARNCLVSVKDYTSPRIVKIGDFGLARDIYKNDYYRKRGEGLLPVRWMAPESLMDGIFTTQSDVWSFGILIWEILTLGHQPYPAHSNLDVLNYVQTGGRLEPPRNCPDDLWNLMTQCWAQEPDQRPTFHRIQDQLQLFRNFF
# Protocol: as §1, with “Then, a 12.5 μL kinase solution containing ALK-wt (1.5 nM, Carna, 08-518), ALK ALK L1196M/G1202R (3 nM, SignalChem, A19-12NG), ROS1-wt (0.6 nM, Carna, 08-163), ROS1-G2032R (0.5 nM, SignalChem, R14-12BG), or TRKA-wt (1 nM, BPS Bio, 40280) kinase domains in buffer (50 nM HEPES pH 7.5, 0.01% Brij-35, 2% glycerol, 0.4 mg/mL BSA, 0.5 mM EGTA, and 10 mM MgCl2) was added and mixed thoroughly.” left out
# [1] = test system: TPM3-NTRK1-wt IC50 / primary target IC50 (e.g. CD74-ROS1-wt); assay: TRKA selectivity in Ba/F3 cells (TRKA potency divided by primary target potency); type: cell-based; conditions: for TPM3-NTRK1-wt/CD74-ROS1-G2032R selectivity ratio: TRKA potency / CD74-ROS1-G2032R potency; for TPM3-NTRK1-wt/CD74-ROS1-wt selectivity ratio: TRKA potency / CD74-ROS1-wt potency; for TPM3-NTRK1-wt/EML4-ALK-L1196M-G1202R selectivity ratio: TRKA potency / EML4-ALK-L1196M-G1202R potency; for TPM3-NTRK1-wt/EML4-ALK-wt selectivity ratio: TRKA potency / EML4-ALK-wt potency
# Protocol: TRKA selectivity was calculated by dividing a compound's TRKA potency by its primary target potency (e.g. TPM3-NTRK1-wt IC50/CD74-ROS1-wt IC50). Compound selectivity can be interpreted by binning ratio values: bin A for very high selectivity, ratio >30-fold; bin B for high selectivity, ratio >10-fold; bin C for moderate selectivity, ratio ≥1; and bin D for low selectivity, ratio <1. […] (nd=not determined).
# [2] = molecular target: T3, Ba/F3 cells EML4-ALK L1196M/G1202R (variant 1) (Homo sapiens, UniProt Q9UM73, G1202R/L1196M); assay: Ba/F3 cell proliferation assay, EML4-ALK L1196M/G1202R (variant 1); type: cell-based; conditions: 72 hours, CellTiter-Glo
# T3 construct: echinoderm microtubule-associated protein-like 4 (EML4) gene and the ALK tyrosine kinase domain; host or cells: Ba/F3 (RIKEN), retroviral pMSCV-puro; the other entry of the earlier key: EML4 (Q9HC35, Echinoderm microtubule-associated protein-like 4)
# T3 sequence (Q9UM73 with tags, fused parts or gaps L1196M/G1202R): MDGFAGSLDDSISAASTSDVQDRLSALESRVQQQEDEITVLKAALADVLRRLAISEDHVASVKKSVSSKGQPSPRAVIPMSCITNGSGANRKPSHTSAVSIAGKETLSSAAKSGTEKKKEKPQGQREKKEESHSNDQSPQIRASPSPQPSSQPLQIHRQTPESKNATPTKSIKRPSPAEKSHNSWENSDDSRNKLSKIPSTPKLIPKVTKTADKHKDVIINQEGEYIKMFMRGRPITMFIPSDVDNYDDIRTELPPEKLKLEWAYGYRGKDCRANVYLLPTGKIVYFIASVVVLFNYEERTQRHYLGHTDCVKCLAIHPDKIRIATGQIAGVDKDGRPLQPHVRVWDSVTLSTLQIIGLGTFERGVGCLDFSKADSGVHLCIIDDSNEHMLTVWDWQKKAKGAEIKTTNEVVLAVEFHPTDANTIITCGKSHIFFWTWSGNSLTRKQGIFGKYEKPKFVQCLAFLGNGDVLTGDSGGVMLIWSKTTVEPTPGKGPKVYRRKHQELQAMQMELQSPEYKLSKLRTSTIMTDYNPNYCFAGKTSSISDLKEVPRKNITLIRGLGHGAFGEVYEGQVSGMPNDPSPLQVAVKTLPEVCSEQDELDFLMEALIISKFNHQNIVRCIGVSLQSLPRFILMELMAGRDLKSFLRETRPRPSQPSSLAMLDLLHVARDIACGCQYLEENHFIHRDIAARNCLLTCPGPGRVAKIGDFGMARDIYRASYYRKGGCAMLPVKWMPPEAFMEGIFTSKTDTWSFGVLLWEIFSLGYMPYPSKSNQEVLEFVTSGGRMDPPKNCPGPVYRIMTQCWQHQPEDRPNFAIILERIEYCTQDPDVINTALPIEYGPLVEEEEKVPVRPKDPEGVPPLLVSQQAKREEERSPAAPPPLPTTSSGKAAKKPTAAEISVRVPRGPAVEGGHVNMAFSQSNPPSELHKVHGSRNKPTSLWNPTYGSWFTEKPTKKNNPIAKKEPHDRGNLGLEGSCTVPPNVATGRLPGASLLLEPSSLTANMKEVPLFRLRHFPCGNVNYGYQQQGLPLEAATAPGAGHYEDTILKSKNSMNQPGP
# Outline: (§2)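 Stable fusion-expressing Ba/F3 clones, 1,000 cells/well. Compounds for 72 h, CellTiter-Glo readout; IC50 by 4-parameter logistic regression.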
# ALK L1196M/G1202R = molecular target: T4, ALK L1196M/G1202R (Homo sapiens, UniProt Q9UM73, G1202R/L1196M); assay: Biochemical kinase assay, ALK L1196M/G1202R kinase domain; conditions: apparent inhibitory constant, Morrison equation; ATP 2 mM in substrate solution; read-out: ALK-L1196M-G1202R Ki^app
# T4 construct: purchased SignalChem A19-12NG
# T4 sequence (Q9UM73 1116-1392 L1196M/G1202R limits assumed): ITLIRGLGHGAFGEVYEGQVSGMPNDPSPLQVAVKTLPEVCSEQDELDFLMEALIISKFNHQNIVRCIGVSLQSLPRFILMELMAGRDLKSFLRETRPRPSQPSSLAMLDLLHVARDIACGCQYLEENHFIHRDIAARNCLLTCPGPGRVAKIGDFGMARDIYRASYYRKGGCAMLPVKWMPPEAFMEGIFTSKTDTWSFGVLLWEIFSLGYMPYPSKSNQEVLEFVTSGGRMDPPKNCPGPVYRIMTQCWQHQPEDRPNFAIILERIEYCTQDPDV
# Protocol: as §1
# [3] = molecular target: T5, Ba/F3 cells CD74-ROS1 G2032R (Homo sapiens, UniProt P08922, G2032R); assay: Ba/F3 cell proliferation assay, CD74-ROS1 G2032R; type: cell-based; conditions: 72 hours, CellTiter-Glo
# T5 construct: fusion of the C-terminus of ROS1 with the N-terminus of various partner proteins; host or cells: Ba/F3 (RIKEN), retroviral pMSCV-puro; the other entry of the earlier key: CD74 (P04233, HLA class II histocompatibility antigen gamma chain)
# T5 sequence (P08922 1883-2347 G2032R limits assumed): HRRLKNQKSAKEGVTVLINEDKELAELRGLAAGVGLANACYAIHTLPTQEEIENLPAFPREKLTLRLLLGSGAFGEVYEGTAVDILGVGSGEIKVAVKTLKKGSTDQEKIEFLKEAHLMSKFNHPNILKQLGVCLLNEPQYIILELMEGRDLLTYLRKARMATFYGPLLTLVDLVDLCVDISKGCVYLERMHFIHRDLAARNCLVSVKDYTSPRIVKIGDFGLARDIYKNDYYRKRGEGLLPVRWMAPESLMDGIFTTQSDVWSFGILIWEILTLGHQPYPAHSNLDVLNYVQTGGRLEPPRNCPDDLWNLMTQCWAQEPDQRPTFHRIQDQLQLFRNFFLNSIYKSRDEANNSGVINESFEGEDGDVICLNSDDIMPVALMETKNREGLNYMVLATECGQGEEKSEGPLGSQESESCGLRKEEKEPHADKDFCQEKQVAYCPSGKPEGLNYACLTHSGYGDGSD
# Outline: (§3)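 IL-3-independent Ba/F3 CD74-ROS1 lines, puromycin-selected monoclones; 1,000 cells/well, plated 1 d before dosing; 3-fold serial dilutions, 72 h; CellTiter-Glo luminescence; IC50 by 4-parameter logistic regression.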
# [4] = molecular target: T6, Ba/F3 cells CD74-ROS1 wild-type (wt) (Homo sapiens, UniProt P08922); assay: Ba/F3 cell proliferation assay, CD74-ROS1 wild-type; type: cell-based; conditions: 72 hours, CellTiter-Glo
# T6 construct: fusion of the C-terminus of ROS1 with the N-terminus of various partner proteins; host or cells: Ba/F3 (RIKEN), retroviral pMSCV-puro; the other entry of the earlier key: CD74 (P04233, HLA class II histocompatibility antigen gamma chain)
# T6 sequence (P08922 1883-2347 limits assumed): as the sequence (P08922 1883-2347 G2032R limits assumed) above, with R150G counted along it
# Outline: as §3
# ALK-wt = molecular target: T7, ALK-wt (Homo sapiens, UniProt Q9UM73); assay: Biochemical kinase assay, ALK-wt kinase domain; conditions: apparent inhibitory constant, Morrison equation; ATP 2 mM in substrate solution; read-out: ALK-wt Ki^app
# T7 construct: purchased Carna 08-518
# T7 sequence (Q9UM73 1116-1392 limits assumed): as the sequence (Q9UM73 1116-1392 L1196M/G1202R limits assumed) above, with M81L, R87G counted along it
# Protocol: as §1
# ROS1-wt = molecular target: T8, ROS1-wt (Homo sapiens, UniProt P08922); assay: Biochemical kinase assay, ROS1-wt kinase domain; conditions: apparent inhibitory constant, Morrison equation; ATP 2 mM in substrate solution; read-out: ROS1-wt Ki^app
# T8 construct: purchased Carna 08-163
# T8 sequence (P08922 1945-2222 limits assumed): as the sequence (P08922 1945-2222 G2032R limits assumed) above, with R88G counted along it
# Protocol: as §1, with “Then, a 12.5 μL kinase solution containing ALK-wt (1.5 nM, Carna, 08-518), ALK ALK L1196M/G1202R (3 nM, SignalChem, A19-12NG), ROS1-wt (0.6 nM, Carna, 08-163), ROS1-G2032R (0.5 nM, SignalChem, R14-12BG), or TRKA-wt (1 nM, BPS Bio, 40280) kinase domains in buffer (50 nM HEPES pH 7.5, 0.01% Brij-35, 2% glycerol, 0.4 mg/mL BSA, 0.5 mM EGTA, and 10 mM MgCl2) was added and mixed thoroughly.” left out
# [5] = molecular target: T9, Ba/F3 cells EML4-ALK wt (variant 1) (Homo sapiens, UniProt Q9UM73); assay: Ba/F3 cell proliferation assay, EML4-ALK wt (variant 1); type: cell-based; conditions: 72 hours, CellTiter-Glo
# T9 construct: echinoderm microtubule-associated protein-like 4 (EML4) gene and the ALK tyrosine kinase domain; host or cells: Ba/F3 (RIKEN), retroviral pMSCV-puro; the other entry of the earlier key: EML4 (Q9HC35, Echinoderm microtubule-associated protein-like 4)
# T9 sequence (Q9UM73 with tags, fused parts or gaps): as the sequence (Q9UM73 with tags, fused parts or gaps L1196M/G1202R) above, with M635L, R641G counted along it
# Outline: as §2
# Ba/F3 cells TPM3-TRKA = molecular target: T10, Ba/F3 cells TPM3-TRKA (Homo sapiens, UniProt P04629); assay: Ba/F3 cell proliferation assay, TPM3-TRKA; type: cell-based; conditions: 72 hours, CellTiter-Glo, read-out: TPM3-NTRK1-wt IC50
# T10 construct: host or cells: Ba/F3 (RIKEN), retroviral pMSCV-puro; the other entry of the earlier key: TPM3 (P06753, Tropomyosin alpha-3 chain)
# T10 sequence (P04629 510-796 limits assumed): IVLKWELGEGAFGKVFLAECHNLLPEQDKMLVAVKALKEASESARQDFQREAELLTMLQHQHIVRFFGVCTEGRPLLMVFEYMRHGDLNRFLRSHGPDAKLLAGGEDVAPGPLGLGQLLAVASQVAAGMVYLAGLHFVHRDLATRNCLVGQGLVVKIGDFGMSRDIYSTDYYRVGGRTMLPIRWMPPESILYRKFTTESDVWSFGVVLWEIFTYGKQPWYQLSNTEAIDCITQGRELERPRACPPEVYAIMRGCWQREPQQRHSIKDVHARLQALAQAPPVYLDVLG
# Outline: as §2
# T1 sequence (P04629 510-781 limits assumed): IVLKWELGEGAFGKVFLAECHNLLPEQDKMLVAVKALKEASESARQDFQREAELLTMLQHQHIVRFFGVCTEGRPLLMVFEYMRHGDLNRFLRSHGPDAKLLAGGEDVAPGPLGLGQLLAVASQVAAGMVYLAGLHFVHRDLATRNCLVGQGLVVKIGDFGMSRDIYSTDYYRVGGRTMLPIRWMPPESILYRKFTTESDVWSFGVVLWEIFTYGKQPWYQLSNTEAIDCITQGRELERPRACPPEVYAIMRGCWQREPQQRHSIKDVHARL
Ki (TRKA-wt),Ki (ROS1-G2032R),IC50 [2],Ki (ALK L1196M/G1202R),IC50 [3],IC50 [4],Ki (ALK-wt),Ki (ROS1-wt),IC50 [5],IC50 (Ba/F3 cells TPM3-TRKA),Compound,TPM3-NTRK1-wt/CD74-ROS1-G2032R selectivity ratio [1],TPM3-NTRK1-wt/CD74-ROS1-wt selectivity ratio [1],TPM3-NTRK1-wt/EML4-ALK-L1196M-G1202R selectivity ratio [1],TPM3-NTRK1-wt/EML4-ALK-wt selectivity ratio [1]
> 500 nM,< 50 nM,50 to 500 nM,< 50 nM,0.1 to 50 nM,0.1 to 50 nM,< 50 nM,< 50 nM,0.1 to 50 nM,> 500 nM,"C[C@H]1Oc2cc(cnc2N)-c2c(cnn2C2CCC2)Cn2ncc(C#N)c2-c2ccc(F)cc21 [Example 10, (19R)-22-amino-3-cyclobutyl-16-fluoro-19-methyl-20-oxa-3,4,8,9,23-pentaazapentacyclo[19.3.1.0^2,^6.0^8,^12.0^13,^18]pentacosa-1(24),2(6),4,9,11,13,15,1 7,21(25),22-decaene-11-carbonitrile]","A (bin A for very high selectivity, ratio >30-fold)","A (bin A for very high selectivity, ratio >30-fold)","B (bin B for high selectivity, ratio >10-fold)","A (bin A for very high selectivity, ratio >30-fold)"
> 500 nM,50 to 500 nM,> 500 nM,50 to 500 nM,0.1 to 50 nM,0.1 to 50 nM,< 50 nM,< 50 nM,50 to 500 nM,> 500 nM,"C[C@H]1Oc2cc(cnc2N)-c2c(cnn2C(F)F)Cn2nccc2-c2ccc(F)cc21 [Example 12, (19R)-3-(difluoromethyl)-16-fluoro-19-methyl-20-oxa-3,4,8,9,23-pentaazapentacyclo[19.3.1.0^2,^6.0^8,^12.0^13,^18]pentacosa-1(24),2(6),4,9,11,13,15,17,21(25),22-decaen-22-amine]","A (bin A for very high selectivity, ratio >30-fold)","A (bin A for very high selectivity, ratio >30-fold)","C (bin C for moderate selectivity, ratio ≥1)","A (bin A for very high selectivity, ratio >30-fold)"
> 500 nM,< 50 nM,0.1 to 50 nM,< 50 nM,0.1 to 50 nM,0.1 to 50 nM,< 50 nM,< 50 nM,0.1 to 50 nM,> 500 nM,"C[C@H]1Oc2cc(cnc2N)-c2c(cnn2C2CCC2)Cc2nn(C)nc2-c2ccc(F)cc21 [Example 13, (19R)-3-cyclobutyl-16-fluoro-10,19-dimethyl-20-oxa-3,4,9,10,11,23-hexaazapentacyclo[19.3.1.0^2,^6.0^8,^12.0^13,^18]pentacosa-1(24),2(6),4,8,11,13,15,17,21(25),22-decaen-22-amine]","A (bin A for very high selectivity, ratio >30-fold)","A (bin A for very high selectivity, ratio >30-fold)","A (bin A for very high selectivity, ratio >30-fold)","A (bin A for very high selectivity, ratio >30-fold)"
50 to 500 nM,< 50 nM,50 to 500 nM,< 50 nM,0.1 to 50 nM,0.1 to 50 nM,< 50 nM,< 50 nM,0.1 to 50 nM,50 to 500 nM,"C[C@H]1Oc2cc(cnc2N)-c2c(cnn2C2CC2)Cc2nn(C)nc2-c2ccc(F)cc21 [Example 14, (19R)-3-cyclopropyl-16-fluoro-10,19-dimethyl-20-oxa-3,4,9,10,11,23-hexaazapentacyclo[19.3.1.0^2,^6.0^8,^12.0^13,^18]pentacosa-1(24),2(6),4,8,11,13,15,17,21(25),22-decaen-22-amine]","A (bin A for very high selectivity, ratio >30-fold)","A (bin A for very high selectivity, ratio >30-fold)","C (bin C for moderate selectivity, ratio ≥1)","A (bin A for very high selectivity, ratio >30-fold)"
50 to 500 nM,< 50 nM,0.1 to 50 nM,< 50 nM,0.1 to 50 nM,0.1 to 50 nM,< 50 nM,< 50 nM,0.1 to 50 nM,50 to 500 nM,"CCn1ncc2c1-c1cnc(N)c(c1)O[C@H](C)c1cc(F)ccc1-c1cc(F)nn1C2 [Example 15, (19R)-3-ethyl-10,16-difluoro-19-methyl-20-oxa-3,4,8,9,23-pentaazapentacyclo[19.3.1.0^2,^6.0^8,^12.0^13,^18]pentacosa-1(24),2(6),4,9,11,13,15,17,21(25),22-decaen-22-amine]","A (bin A for very high selectivity, ratio >30-fold)","A (bin A for very high selectivity, ratio >30-fold)","C (bin C for moderate selectivity, ratio ≥1)","A (bin A for very high selectivity, ratio >30-fold)"

# — patent US12054498B2, “Heteroaromatic macrocyclic ether chemotherapeutic agents” (Nuvalent, Inc., priority 2020, dated 2024)
